This is an account of results in patent US20210371413A1, “POLYCYCLIC AMIDES AS CYTOTOXIC AGENTS” (FEMTOGENIX LIMITED, priority 2018, published 2021).

The structures appear in SMILES notation. In brackets after ≈: the same amount, converted by molar mass.

In one experiment the test system is E. coli K12. The experiment can be described thus: MIC assay, E. coli K12. Type of experiment: cell-based. To be noted: overnight (16-20 hour) incubation. The procedure: The antimicrobial activity of a selection of compounds were evaluated in a Gram-negative, Gram-positive and multi-resistant bacteria using the standard minimum inhibitory concentration (MIC) assay for an overnight (16-20 hour) incubation period. Commercially marketed antibiotics (Table 3) were used as positive controls during the study.
Mueller-Hinton broth (MH Broth) (Sigma-Aldrich; Millipore, cat. no. 70192) and Mueller-Hinton agar (MHA) (Sigma-Aldrich; Millipore, cat. no. 70191) were prepared as per manufacturer's instructions and sterilized by autoclaving. Approximately 20 mL of MHA was poured onto 15×100 mm petri dishes and allowed to set. Agar plates were then stored in plastic bags in an inverted position at 4° C.
Bacterial strains were provided in the form of a glycerol stock, stored at −80° C. For the purpose of preparation of bacterial suspension, appropriate strains were removed from −80° C. storage onto dry ice and not allowed to freeze-thaw.
Stock solutions of 16, 45 and 73 were provided in DMSO at 1.28 mg/mL concentration. From this stock solution, working solutions of the desired concentration were prepared by diluting with MHB.
MIC assay methodology was adapted from previously published work.
Bacterial isolate to be tested was streaked onto a nutrient-rich MH agar plate and incubated overnight at 37° C. in order to obtain single colonies.
After overnight incubation, single colonies with the same morphological appearance were chosen from the agar plate. These were touched using a sterile loop and transferred into a tube containing 10 mL of a MH broth. They were then mixed using vortex mixer and incubated at 35-37° C. in a shaker at 200 r.p.m. overnight.
Determination of OD600 and cfu/mL count OD600 (the optical density of a sample measured at a wavelength of 600 nm) of the overnight culture was measured. Because of the loss of linearity at OD600 values […], it was necessary to dilute the sample until the OD600 value was below 1.0. For all tested bacteria, a dilution of 1:10 was appropriate (100 μL in 900 μL broth).
The overnight culture was then diluted 1:100 using sterile tubes and MH broth (dilution: 10^−2). Serial dilution was then performed six times until dilution of 10^−8 was reached. 100 μL of dilutions 10^−7 and 10^−8 were plated onto MH agar plates in triplicate using a sterile cell spreader and incubated overnight at 37° C.
After overnight incubation, colonies on plates were counted and cfu per mL calculated. The following formula was applied: […]
For the generation of overnight cultures to be used for preparation of the bacterial suspension for MIC tests, a single colony of bacteria was selected using a sterile loop and a sterile tube with MH broth was inoculated followed by overnight incubation at […] in a shaker set to 200 r.p.m.
After overnight incubation, the OD600 was measured and the overnight culture was diluted accordingly to obtain 1×10^8 cfu/mL.
Free payload dilutions were prepared as per Table 4.
96-well sterile microtiter plates were used for MIC assay. The plate was filled with the respective free payload or positive control antibiotic concentrations in triplicate. 100 μL of broth was pipetted in the sterility control well (SC, column 12) and 50 μL in the growth control well (GC, column 11).
1×10^8 cfu/mL bacterial suspension was diluted 1:100 and 50 μL added to each well apart from SC. […]
The 96-well plates were read using a SpectraMax plate reader at an absorbance of 600 nm. […]

The test system of a further experiment is "D" DNA fragment. Briefly: DNA footprinting, random "D" DNA fragment. It counts as binding. The conditions noted are these: random "D" DNA sequence. On the procedure: The DNA sequence selectivity profile of the molecules was investigated using a modification of the previously established DNA footprinting assay. Following an overnight incubation of the ligand-DNA complexes, the mixture was mixed with strand separation buffer containing 10 mM EDTA, 10 mM NaOH, 0.1% bromophenol blue, 80% formamide and incubated at 100° C. for 3 min. The mixture was then immediately cooled on ice and run on an 8% denaturing gel.
The preparation of the DS3 DNA fragment (FIG. 5) and the “D” DNA fragment (FIG. 6) has been previously described. Briefly, the sequence which had been cloned into the BamHI site of pUC18 was obtained by cutting with HindIII and EcoRI. Radiolabelled DNA fragments were prepared by filling in the 3′-end of the HindIII site with [α-^32P]dATP using Klenow DNA polymerase (exo-).
The radiolabelled DNA fragment was separated from the remainder of the plasmid DNA on a 6% non-denaturing polyacrylamide gel. […]
Footprinting reactions were performed as previously described using the DNA fragments DS3, which contains tracts of AT/GC bases; and using the “D” DNA fragments which represents a random DNA sequence. […] After gel purification, the radiolabelled DNA was dissolved in 10 mM Tris-HCl pH 7.5 containing 0.1 mM EDTA, at a concentration of about 10 c.p.s per μL as determined on a hand held Geiger counter. […]

For orientation: MIC means the smallest concentration in the dilution series that meets the test's criterion for growth inhibition.

For `COc1cc2c(cc1OCCCC(=O)Nc1cc(C(=O)Nc3ccc(-c4cc(C(=O)Nc5ccc(N)cc5)n(C)c4)cc3)n(C)c1)NC[C@@H]1CCCCN1C2=O` [Compound 16, (S)—N-(4-Aminophenyl)-4-(4-(4-(4-((2-methoxy-12-oxo-5,6,6a,7,8,9,10,12-octahydrobenzo[e]pyrido[1,2-a][1,4]diazepin-3-yl)oxy)butanamido)-1-methyl-1H-pyrrole-2-carboxamido)phenyl)-1-methyl-1H-pyrrole-2-carboxamide], the MIC in the experiment on E. coli K12 (E. coli K12 (Gram-negative)) was 2 to 4 µg/mL; with E. coli K12 (Escherichia coli, K12, E. coli K12 (Gram-negative)), 2 µg/mL (≈ 2.64 µM). Also, the “preferred binding sites (footprint)” value with "D" DNA fragment is “only three preferred sites were observed during this experiment, and all are primarily AT-rich”.
